Assays:
[1] = system: human neuroblastoma MC-65 cells; experiment: cells; details: for EC100 / minimal effective concentration: Homo sapiens, MC65, 48 h; for EC100: read-out: EC100 (maximum effective concentration); for minimal effective concentration: read-out: TH (threshold protective concentration); for CC2 (cytotoxic concentration): MC-65, cultured without tetracycline; for CC2 (cytotoxic concentration) / CC1 (cytotoxic concentration): viability below 80%; for CC1 (cytotoxic concentration): MC-65, presence of TET
Experimental: In this assay, human neuroblastoma cells (MC-65 cells) are genetically engineered to conditionally express amyloid β peptide (Aβ). The Aβ production is suppressed by tetracycline (TET+) presence in culture medium, and its production is activated when TET is withdrawn (TET−). The activation of Aβ production results in cell death “MC-65 suicide”.
Protective effect of compounds against edogenously produced amyloid beta (Aβ) was assessed in human neuroblastoma MC-65 cells. MC-65 cells have been stably transformed to conditionally express high levels of a partial amyloid precursor (AP) fusion protein (Bryce Sopher et al., Brain Res Mol Brain Res. 1994, 207-17.). This protein is further proteolitically processed in the cells to form a set of AP-derived Aβ peptides. […] Activity of the promoter is tightly regulated by the presence of the antibiotic tetracycline (TET) in the culture medium. In the presence of TET (TET+), the promoter is in the basal state and no amyloid beta peptide is synthesized. In the absence of TET (TET−) the promoter is in induced state, resulting in the accumulation of Aβ peptides in the cells, degenerative changes in cell morphology and decreased survival.
Transfected human neuroblastoma cells (MC-65) were cultured in DMEM (ATCC) supplemented with non-essential amino acids and 10% FBS (VWR) in the presence of TET (1 μg/mL). For the experiment, the cells were plated at 35,000 cells/cm^2 and grown for 1 day in the regular culture media prior to compound addition. On the day of the assay, culture supernatant was removed from the wells and cells were thoroughly washed once with the compound incubation matrix containing no FBS and no TET. MC-65 cells were treated with a test compound at pre-determined range of concentrations in a basal medium containing no FBS and in the absence or presence of 1 μg/mL TET for approximately 48 h. Cell viability was then measured using the MTT method.
For data analysis, cell viabilities relative to the control not treated with a test compound and maintained in the presence of TET were plotted against the compound concentration. […] Cytotoxicity of the test compound was assessed in the cells maintained in the presence of TET.

[2] = system: SH-SY5Y human neuroblastoma cells; details: for CC2 (cytotoxic concentration): H2O2-treated cells, viability below 80%; for CC1 (cytotoxic concentration): absence of H2O2, viability below 80%
Text: Hydrogen peroxide (H2O2) is a major ROS (reactive oxidative species), which causes oxidative stress, and can induce apoptosis in many different cell types. One of the CNS drug design strategies is to use compounds with antioxidant properties as a possible treatment of both acute and chronic neurodegenerative diseases (Kang et al. Bioorganic & Medicinal Chemistry Letters, 2004, 14, 2261-2264). This involves testing the compounds of this invention for their protective effect against oxidative stress-induced cell death in SH-SY5Y human neuroblastoma cells. SH-SY5Y human neuroblastoma cells were cultured in DMEM (ATCC)/F12 (Cellgro) with 10% FBS. The cells were plated at 30,000 cells/cm^2 and grown for 1 day in the regular culture media prior to compound addition. Cells were routinely treated with the test compound, at a pre-determined range of concentrations, in the presence or absence of 50 μM hydrogen peroxide in a basal medium containing no FBS for 16-22 h. Cell viability was then measured using the routine MTT method (Mosmann, T., Rapid Colorimetric Assay for Cellular Growth and Survival: Application to Proliferation and Cytotoxicity Assays”. J. Immunol. Meth. 1983, 65, 55-63).
For data analysis, cell viability relative to control not treated with either H2O2 or the test compound, was plotted against the compound concentration. […] Cytotoxicity of the test compound was assessed in the absence of hydrogen peroxide.

| Compound | EC100 [1] | minimal effective concentration [1] | CC2 (cytotoxic concentration) [1] | CC1 (cytotoxic concentration) [1] | CC2 (cytotoxic concentration) [2] | CC1 (cytotoxic concentration) [2] |
| --- | --- | --- | --- | --- | --- | --- |
| Cc1cc(=O)c(O)cn1CC(F)(F)F [Apo6994, 5-hydroxy-2-methyl-1-(2,2,2-trifluoroethyl)pyridin-4(1H)-one] | 10 µM | 1 µM | >80 µM | >80 µM | 640 µM | 160 µM |
| CNC(=O)[C@@H](C)NC(c1c(O)c(=O)ccn1C)C(F)(F)F (stereo partly drawn) [Apo6998, N-methyl-N2-[2,2,2-trifluoro-1-(3-hydroxy-1-methyl-4-oxo-1,4-dihydropyridin-2-yl)ethyl]-D-alaninamide] |  |  |  |  | 100 µM | 20 µM |
| CN(C)Cc1cc(=O)c(O)c(CC(F)(F)F)n1C [Apo7021, 6-[(dimethylamino)methyl]-3-hydroxy-1-methyl-2-(2,2,2-trifluoroethyl)pyridin-4(1H)-one] | 10 µM | 0.1 µM | 20 µM | 10 µM | >640 µM | 80 µM |
| CN(C)Cc1cc(=O)c(O)c(C(O)C(F)(F)F)n1C (centres unmarked) [Apo7022, 6-[(dimethylamino)methyl]-3-hydroxy-1-methyl-2-(2,2,2-trifluoro-1-hydroxyethyl)pyridin-4(1H)-one] | 20 µM | 0.1 µM | 40 µM | 10 µM | 320 µM | 40 µM |
| C[C@H](NCc1cc(=O)c(O)c(C(O)C(F)(F)F)n1C)C(=O)O (stereo partly drawn) [Apo7032, N-{[5-hydroxy-1-methyl-4-oxo-6-(2,2,2-trifluoro-1-hydroxyethyl)-1,4-dihydropyridin-2-yl]methyl}-L-alanine] | 10 µM | 0.1 µM | 40 µM | 80 µM | >640 µM | 10 µM |
| CNC(=O)[C@H](C)NCc1cc(=O)c(O)c(C(O)C(F)(F)F)n1C (stereo partly drawn) [Apo7033, N-2-{[5-hydroxy-1-methyl-4-oxo-6-(2,2,2-trifluoro-1-hydroxyethyl)-1,4-dihydropyridin-2-yl]methyl}-N-methyl-L-alaninamide] |  |  |  |  | >640 µM | 40 µM |
| Cc1c(Cl)c(=O)c(O)c(C(O)C(F)(F)F)n1C (centres unmarked) [Apo7038, 3-chloro-5-hydroxy-1,2-dimethyl-6-(2,2,2-trifluoro-1-hydroxyethyl)pyridin-4(1H)-one] |  |  |  |  | >640 µM | 40 µM |
| Cc1c(O)c(=O)c(C(N2CCCCC2)C(F)(F)F)cn1C (centres unmarked) [Apo7054, 3-Hydroxy-1,2-dimethyl-5-[2,2,2-trifluoro-1-(piperidin-1-yl)ethyl]pyridin-4(1H)-one] | 1 µM | 0.1 µM | 20 µM | 20 µM | >640 µM | 5 µM |
| Cc1c(O)c(=O)c(C(n2ccnc2)C(F)(F)F)cn1C (centres unmarked) [Apo7055, 3-Hydroxy-1,2-dimethyl-5-[2,2,2-trifluoro-1-(1H-imidazol-1-yl)ethyl]pyridin-4(1H)-one] | 20 µM | 1 µM | 40 µM | 40 µM | >640 µM | 10 µM |
| C#CCN(C)C(c1c(O)c(=O)ccn1C)C(F)(F)F (centres unmarked) [Apo7057, 3-hydroxy-1-methyl-2-{2,2,2-trifluoro-1-[methyl(prop-2-yn-1-yl)amino]ethyl}pyridin-4(1H)-one] | 10 µM | 1 µM | 20 µM | 20 µM | 80 µM | 5 µM |
| Cn1ccc(=O)c(O)c1C(N1CCCCC1)C(F)(F)F (centres unmarked) [Apo7058, 3-hydroxy-1-methyl-2-[2,2,2-trifluoro-1-(piperidin-1-yl)ethyl]pyridin-4(1H)-one] | 10 µM | 1 µM | 80 µM | 10 µM | >640 µM | 20 µM |
| Cc1c(Cl)c(=O)c(O)c(C(N(C)C)C(F)(F)F)n1C (centres unmarked) [Apo7059, 3-chloro-6-[1-(dimethylamino)-2,2,2-trifluoroethyl]-5-hydroxy-1,2-dimethylpyridin-4(1H)-one] | 10 µM | 1 µM | 40 µM | 10 µM | 640 µM | 40 µM |
| Cn1cc(Cl)c(=O)c(O)c1C(N1CCCCC1)C(F)(F)F (centres unmarked) [Apo7061, 5-chloro-3-hydroxy-1-methyl-2-[2,2,2-trifluoro-1-(piperidin-1-yl)ethyl]pyridin-4(1H)-one] | 10 µM | 1 µM | 20 µM | 40 µM | 10 µM | 10 µM |
| Cc1c(O)c(=O)c(C(N2CCN(C)CC2)C(F)(F)F)cn1C.Cl (centres unmarked) [Apo7063, 3-Hydroxy-1,2-dimethyl-5-[2,2,2-trifluoro-1-(4-methylpiperazin-1-yl)ethyl]pyridin-4(1H)-one hydrochloride] |  |  |  |  | >640 µM | 320 µM |
| Cc1cc(=O)c(O)c(CN2CCCCC2)n1CC(F)(F)F [Apo7071, 3-hydroxy-6-methyl-2-(piperidin-1-ylmethyl)-1-(2,2,2-trifluoroethyl)pyridin-4(1H)-one] | 10 µM | 1 µM | 20 µM | 40 µM | 80 µM | 20 µM |
| CN1CCN(C(c2c(O)c(=O)ccn2C)C(F)(F)F)CC1 (centres unmarked) [Apo7073, 3-hydroxy-1-methyl-2-[2,2,2-trifluoro-1-(4-methylpiperazin-1-yl)ethyl]pyridin-4(1H)-one] | 10 µM | 0.1 µM | 20 µM | 40 µM | >640 µM | 40 µM |
| Cn1ccc(=O)c(O)c1C(NC1CC1)C(F)(F)F (centres unmarked) [Apo7074, 2-[1-(cyclopropylamino)-2,2,2-trifluoroethyl]-3-hydroxy-1-methylpyridin-4(1H)-one] | 10 µM | 0.1 µM | 20 µM | 10 µM | >640 µM | 20 µM |
| C=CCNC(c1c(O)c(=O)ccn1C)C(F)(F)F (centres unmarked) [Apo7075, 3-hydroxy-1-methyl-2-[2,2,2-trifluoro-1-(prop-2-en-1-ylamino)ethyl]pyridin-4(1H)-one] | 10 µM | 0.1 µM | 20 µM | 10 µM | >640 µM | 20 µM |
| Cn1ccc(=O)c(O)c1C(C(F)F)N1CCN(c2ccccn2)CC1 (centres unmarked) [Apo7316, 2-(2,2-difluoro-1-(4-(pyridin-2-yl)piperazin-1-yl)ethyl)-3-hydroxy-1-methylpyridin-4(1H)-one] | 10 µM | 1 µM | 20 µM | 10 µM | 320 µM | 320 µM |

Reference: patent US9938240B2, “Fluorinated derivatives of 3-hydroxypyridin-4-ones” (Apotex Technologies Inc., priority 2009, dated 2018)
